Laboratory results from paper PMC3201904 (Phytochemistry, 2011).

Target: GABA A receptor α1β2γ2S (Rattus norvegicus, UniProt P18508+P62813+P63138)
Assay: two-microelectrode voltage clamp, Xenopus oocytes, potentiation of GABA current
Type: cell-based

GABA A receptor α1β2γ2S, sequence (P62813 28-455): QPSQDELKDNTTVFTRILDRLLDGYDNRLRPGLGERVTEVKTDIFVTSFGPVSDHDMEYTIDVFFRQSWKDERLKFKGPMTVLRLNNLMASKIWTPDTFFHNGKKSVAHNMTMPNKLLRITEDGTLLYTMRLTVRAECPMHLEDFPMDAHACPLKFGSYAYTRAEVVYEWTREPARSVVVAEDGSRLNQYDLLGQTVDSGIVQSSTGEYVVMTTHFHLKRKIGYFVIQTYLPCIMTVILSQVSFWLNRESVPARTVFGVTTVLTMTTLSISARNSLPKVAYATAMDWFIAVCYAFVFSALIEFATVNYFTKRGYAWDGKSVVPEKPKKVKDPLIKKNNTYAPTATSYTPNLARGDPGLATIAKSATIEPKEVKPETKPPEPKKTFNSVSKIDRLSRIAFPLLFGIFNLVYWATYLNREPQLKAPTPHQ
GABA A receptor α1β2γ2S, sequence (P63138 26-474): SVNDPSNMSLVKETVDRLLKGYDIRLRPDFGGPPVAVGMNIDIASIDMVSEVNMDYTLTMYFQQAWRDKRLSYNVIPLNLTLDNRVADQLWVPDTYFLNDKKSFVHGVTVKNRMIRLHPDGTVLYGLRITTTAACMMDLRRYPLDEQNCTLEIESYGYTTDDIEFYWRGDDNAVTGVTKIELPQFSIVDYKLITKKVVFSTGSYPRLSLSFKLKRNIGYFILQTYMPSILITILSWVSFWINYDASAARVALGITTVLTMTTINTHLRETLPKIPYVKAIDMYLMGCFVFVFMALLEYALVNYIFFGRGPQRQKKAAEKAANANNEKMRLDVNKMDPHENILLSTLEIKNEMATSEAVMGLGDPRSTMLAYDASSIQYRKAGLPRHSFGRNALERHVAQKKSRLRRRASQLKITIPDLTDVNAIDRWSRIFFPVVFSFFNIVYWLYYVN
GABA A receptor α1β2γ2S, sequence (P18508 39-466): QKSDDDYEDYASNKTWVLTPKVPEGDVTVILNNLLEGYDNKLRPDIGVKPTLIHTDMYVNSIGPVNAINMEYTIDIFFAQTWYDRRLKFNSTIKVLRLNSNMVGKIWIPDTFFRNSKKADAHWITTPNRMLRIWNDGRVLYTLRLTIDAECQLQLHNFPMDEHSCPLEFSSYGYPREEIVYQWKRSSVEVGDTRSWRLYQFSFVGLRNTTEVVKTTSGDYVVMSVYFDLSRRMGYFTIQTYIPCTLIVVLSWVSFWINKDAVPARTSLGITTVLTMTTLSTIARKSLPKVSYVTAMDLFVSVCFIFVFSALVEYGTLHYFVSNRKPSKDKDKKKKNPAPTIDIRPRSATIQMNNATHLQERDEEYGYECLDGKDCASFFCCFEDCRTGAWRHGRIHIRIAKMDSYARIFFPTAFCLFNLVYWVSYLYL

SMILES | EC50 [µM]
CC1(C)CCC[C@]1(C)C1=CC=C(C(=O)O)CC1 [compound 12, (−)-5,6-dihydrocuparenic acid] | 118 ± 29.9
COc1cc(C[C@@H](C)[C@@H](C)Cc2ccc(O)c(OC)c2)ccc1O [compound 5, dihydroguaiaretic acid] | 79.2 ± 19.4

The next compounds have a lower EC50 than those just listed; values first:

EC50 [µM] | SMILES
70.6 ± 12.2 | C=CC(=C)CC[C@@H](OC(=O)/C=C/c1ccccc1)C(C)(C)O [compound 7, (+)-6-cinnamoyl-6,7-dihydro-7-myrceneol]
54.6 ± 28.8 | COc1cc(C[C@H](C)[C@H](C)Cc2ccc(OC)c(OC)c2)ccc1O [compound 8, mono-methyl dihydroguaiaretic acid]
31.5 ± 7.1 | COc1cc(C[C@H](C)[C@H](C)Cc2ccc3c(c2)OCO3)ccc1O [compound 11, anwulignan]
